Counter-ions that a name gives are not always drawn. Like-named read-outs stand apart in the source and are kept apart here.
Experiments:
human NTCP [1] = biological target: T1, human NTCP (Homo sapiens, UniProt Q14973); test: Screening taurocholate uptake assay (96-well, [14C]taurocholate, 10 µM drug)
T1 sequence (Q14973 1-349): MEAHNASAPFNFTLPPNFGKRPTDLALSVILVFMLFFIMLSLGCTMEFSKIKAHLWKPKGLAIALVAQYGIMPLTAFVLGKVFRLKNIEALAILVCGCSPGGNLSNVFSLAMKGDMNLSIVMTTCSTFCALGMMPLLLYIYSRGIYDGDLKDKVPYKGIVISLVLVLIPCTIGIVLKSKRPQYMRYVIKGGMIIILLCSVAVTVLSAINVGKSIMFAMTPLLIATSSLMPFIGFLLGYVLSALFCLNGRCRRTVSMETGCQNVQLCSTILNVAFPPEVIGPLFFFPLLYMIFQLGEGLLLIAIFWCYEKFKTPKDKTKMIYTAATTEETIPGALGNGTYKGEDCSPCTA

human NTCP [2] = biological target: T1, human NTCP; test: Screening fluorescent competitive Myrcludex B-FITC binding assay (96-well, 10 µM drug)
[3] = Prestwick library screen, 10 µM drug, B-score of taurocholate uptake
[4] = combined ranking from functional and binding assay B-scores
[5] = Prestwick library screen, 10 µM drug, B-score of Myrcludex B-FITC binding
[6] = Prestwick library screen, taurocholate uptake, 10 µM drug
[7] = ranking score beside the functional and binding assay B-scores of the screen
[8] = Prestwick library screen, Myrcludex B-FITC binding, 10 µM drug
[9] = combined ranking from functional and binding screening assays
[10] = screen, 10 µM drug, taurocholate uptake
[11] = screen, 10 µM drug, Myrcludex B-FITC binding

SMILES | B-score functional assay (human NTCP [1]; [3]) | Ranking score (human NTCP [1]; [4]) | B-score binding assay (human NTCP [2]; [5]) | B-score functional assay (human NTCP [1]; [6]) | Ranking score (human NTCP [1]; [7]) | B-score binding assay (human NTCP [2]; [8]) | also measured
NS(=O)(=O)c1cc2c(cc1C(F)(F)F)NCNS2(=O)=O [Hydroflumethiazide] | 0.664 | 856.507 | 0.137 |  |  |  | 
CCN(CCO)CCCC(C)Nc1ccnc2cc(Cl)ccc12 (stereo not drawn) [Hydroxychloroquine sulfate] |  |  |  | 0.168 | 775.907 | 0.139 | 
OCCOCCN1CCN(C(c2ccccc2)c2ccc(Cl)cc2)CC1 (stereo not drawn) [Hydroxyzine dihydrochloride] |  |  |  |  |  |  | Ranking score (human NTCP [1]; [9]): 394.018; B-score functional assay (human NTCP [1]; [10]): 1.371; B-score binding assay (human NTCP [2]; [11]): -1.7
Cc1cc(=O)oc2cc(O)ccc12 [Hymecromone] |  |  |  |  |  |  | Ranking score (human NTCP [1]; [9]): 448.437; B-score functional assay (human NTCP [1]; [10]): -0.811; B-score binding assay (human NTCP [2]; [11]): 0.036
CC(C)C(=O)c1c(C(C)C)nn2ccccc12 [Ibudilast] | 0.276 | 895.497 | 0.677 |  |  |  | 
CCCCCCCN(CC)CCCC(O)c1ccc(NS(C)(=O)=O)cc1.CCCCCCCN(CC)CCCC(O)c1ccc(NS(C)(=O)=O)cc1.O=C(O)/C=C/C(=O)O (stereo not drawn) [Ibutilide fumarate] |  |  |  | 0.035 | 835.048 | 0.907 | 
CC(C(O)c1ccc(O)cc1)N1CCC(Cc2ccccc2)CC1.CC(C(O)c1ccc(O)cc1)N1CCC(Cc2ccccc2)CC1.O=C(O)C(O)C(O)C(=O)O (stereo not drawn) [Ifenprodil tartrate] |  |  |  | 1.465 | 727.635 | -0.263 | 
O=P1(NCCCl)OCCCN1CCCl (stereo not drawn) [Ifosfamide] |  |  |  |  |  |  | Ranking score (human NTCP [1]; [9]): 334.739; B-score functional assay (human NTCP [1]; [10]): 0.023; B-score binding assay (human NTCP [2]; [11]): -1.438
O=C(NCNC(=O)NC1C(=O)NC(=O)N1CO)NC1C(=O)NC(=O)N1CO (stereo not drawn) [Imidurea] | 1.058 | 960.608 | 0.346 |  |  |  | 
CC(C)Cn1cnc2c(N)nc3ccccc3c21 [Imiquimod] |  |  |  |  |  |  | B-score functional assay (human NTCP [1]): -0.019; Ranking score (human NTCP [1]): 554.076; B-score binding assay (human NTCP [2]): -0.174
CN[C@@H]1C[C@@H](c2ccc(Cl)c(Cl)c2)c2ccccc21 [Indatraline hydrochloride] |  |  |  | 0.152 | 814.16 | 0.336 | 
CC(C)(C)NC(=O)[C@@H]1CN(Cc2cccnc2)CCN1C[C@@H](O)C[C@@H](Cc1ccccc1)C(=O)N[C@H]1c2ccccc2C[C@H]1O [Indinavir sulfate] |  |  |  | -0.197 | 710.601 | 1.008 | 
CC(C(=O)O)c1ccc(N2Cc3ccccc3C2=O)cc1 (stereo not drawn) [Indoprofen] | 0.788 | 897.998 | 0.209 |  |  |  | 
O=C(CCCCC(=O)Nc1c(I)cc(I)c(C(=O)O)c1I)Nc1c(I)cc(I)c(C(=O)O)c1I [Iodipamide] |  |  |  | 2.519 | 831.882 | -0.069 | 
CC(=O)N(CC(O)CO)c1c(I)c(C(=O)NCC(O)CO)c(I)c(C(=O)NCC(O)CO)c1I (stereo not drawn) [Iohexol] |  |  |  | 0.198 | 748.519 | 0.046 | 
CCC(Cc1c(I)cc(I)c(N)c1I)C(=O)O (stereo not drawn) [Iopanoic acid] |  |  |  |  |  |  | Ranking score (human NTCP [1]; [9]): 395.161; B-score functional assay (human NTCP [1]; [10]): -1.985; B-score binding assay (human NTCP [2]; [11]): 1.953

SMILES | B-score functional assay (human NTCP [1]; [3]) | Ranking score (human NTCP [1]; [4]) | B-score binding assay (human NTCP [2]; [5]) | B-score functional assay (human NTCP [1]; [6]) | Ranking score (human NTCP [1]; [7]) | B-score binding assay (human NTCP [2]; [8]) | also measured
O=C(NCC(O)CO)c1c(I)c(C(=O)NCC(O)CO)c(I)c(N(CCO)C(=O)CO)c1I (stereo not drawn) [Ioversol] |  |  |  |  |  |  | B-score functional assay (human NTCP [1]): 1.843; Ranking score (human NTCP [1]): 1044.38; B-score binding assay (human NTCP [2]): 0.541
CNC(=O)c1c(I)c(C(=O)NCC(=O)Nc2c(I)c(C(=O)O)c(I)c(C(=O)NCCO)c2I)c(I)c(N(C)C(C)=O)c1I [Ioxaglic acid] |  |  |  | -0.19 | 769.829 | 2.105 | 
O=C1c2ccccc2S(=O)(=O)N1CCCCN1CCN(c2ncccn2)CC1 [Ipsapirone] | 1.921 | 1093.42 | 0.854 |  |  |  | 
Nc1nc(N)nc(-c2cc(Cl)ccc2Cl)n1 [Irsogladine maleate] |  |  |  | 5.029 | 750.144 | -0.312 | 
Clc1ccc(C(Cn2ccnc2)OCc2c(Cl)cccc2Cl)c(Cl)c1 (stereo not drawn) [Isoconazole] | 0.797 | 1126.41 | 2.982 |  |  |  | 
CNC(C)CCC=C(C)C.CNC(C)CCC=C(C)C.O=C(O)[C@@H](O)[C@H](O)[C@H](O)[C@@H](O)C(=O)O [Isometheptene mucate] |  |  |  |  |  |  | Ranking score (human NTCP [1]; [9]): 319.923; B-score functional assay (human NTCP [1]; [10]): -0.726; B-score binding assay (human NTCP [2]; [11]): -0.672
NNC(=O)c1ccncc1 [Isoniazid] | 1.386 | 1117.92 | 1.337 |  |  |  | 
O=[N+]([O-])O[C@H]1CO[C@H]2[C@@H]1OC[C@H]2O[N+](=O)[O-] [Isosorbide dinitrate] |  |  |  |  |  |  | B-score functional assay (human NTCP [1]): 2.183; Ranking score (human NTCP [1]): 973.944; B-score binding assay (human NTCP [2]): 0.166
NC[C@H]1O[C@H](O[C@H]2[C@H](O)[C@@H](O[C@H]3O[C@H](CO)[C@@H](O)[C@H](N)[C@H]3O)[C@H](N)C[C@@H]2N)[C@H](O)[C@@H](O)[C@@H]1O [Kanamycin A sulfate] |  |  |  | -0.456 | 673.457 | 1.616 | 
O=C(O)C(O)C(O)C(=O)O.O=C(c1ccc(F)cc1)C1CCN(CCn2c(=O)[nH]c3ccccc3c2=O)CC1 [Ketanserin tartrate hydrate] |  |  |  | 0.482 | 727.865 | -0.046 | 
CC(=O)N1CCN(c2ccc(OCC3COC(Cn4ccnc4)(c4ccc(Cl)cc4Cl)O3)cc2)CC1 (stereo not drawn) [Ketoconazole] |  |  |  |  |  |  | Ranking score (human NTCP [1]; [9]): 349.5; B-score functional assay (human NTCP [1]; [10]): 0.044; B-score binding assay (human NTCP [2]; [11]): -1.382
O=C(c1ccccc1)c1ccc2n1CCC2C(=O)O (stereo not drawn) [Ketorolac tromethamine] |  |  |  |  |  |  | Ranking score (human NTCP [1]; [9]): 396.636; B-score functional assay (human NTCP [1]; [10]): -0.269; B-score binding assay (human NTCP [2]; [11]): -0.614
CN1CCC(=C2c3ccccc3CC(=O)c3sccc32)CC1 [Ketotifen fumarate] |  |  |  |  |  |  | Ranking score (human NTCP [1]; [9]): 425.088; B-score functional assay (human NTCP [1]; [10]): 0.006; B-score binding assay (human NTCP [2]; [11]): -0.838
COc1c2occc2c(OC)c2c(=O)cc(C)oc12 [Khellin] |  |  |  |  |  |  | Ranking score (human NTCP [1]; [9]): 450.763; B-score functional assay (human NTCP [1]; [10]): 0.111; B-score binding assay (human NTCP [2]; [11]): -0.883
Nc1ccn([C@@H]2CS[C@H](CO)O2)c(=O)n1 [Lamivudine] |  |  |  |  |  |  | Ranking score (human NTCP [1]; [9]): 411.191; B-score functional assay (human NTCP [1]; [10]): 0.533; B-score binding assay (human NTCP [2]; [11]): -1.334
CC(C)OC(=O)CCC/C=C\C[C@@H]1[C@@H](CC[C@@H](O)CCc2ccccc2)[C@H](O)C[C@@H]1O [Latanoprost] |  |  |  |  |  |  | Ranking score (human NTCP [1]; [9]): 347.885; B-score functional assay (human NTCP [1]; [10]): -2.131; B-score binding assay (human NTCP [2]; [11]): 0.817

Continued, in another order:

B-score functional assay (human NTCP [1]; [3]) | Ranking score (human NTCP [1]; [4]) | B-score binding assay (human NTCP [2]; [5]) | B-score functional assay (human NTCP [1]; [6]) | Ranking score (human NTCP [1]; [7]) | B-score binding assay (human NTCP [2]; [8]) | SMILES | also measured
 |  |  | 0.036 | 698.928 | 0.056 | CC(C)[N+](C)(CCC(C(N)=O)(c1ccccc1)c1ccccc1)C(C)C [Isopropamide iodide] | 
1.391 | 933.01 | 0.145 |  |  |  | Cc1cc(NC(=O)C2=C(O)c3ccccc3S(=O)(=O)N2C)no1 [Isoxicam] | 
0.459 | 888.476 | 0.408 |  |  |  | CC(COc1ccccc1)NC(C)C(O)c1ccc(O)cc1 (stereo not drawn) [Isoxsuprine hydrochloride] | 
0.058 | 871.813 | 1.124 |  |  |  | CCC(C)n1ncn(-c2ccc(N3CCN(c4ccc(OCC5COC(Cn6cncn6)(c6ccc(Cl)cc6Cl)O5)cc4)CC3)cc2)c1=O (stereo not drawn) [Itraconazole] | 
 |  |  | 0.552 | 744.048 | -0.039 | CO[C@@H]1[C@@H](O[C@@H]2O[C@H](C)[C@@H](O[C@H]3C[C@@](C)(O)[C@@H](OC(=O)CC(C)C)[C@H](C)O3)[C@H](N(C)C)[C@H]2O)[C@@H](CC=O)C[C@@H](C)[C@@H](O)/C=C/C=C/C[C@@H](C)OC(=O)C[C@H]1OC(C)=O [Josamycin] | 
0.194 | 957.497 | 1.528 |  |  |  | CCOC(=O)C1=C(C)NC(C)=C(C(=O)OCC)C1c1ccccc1/C=C/C(=O)OC(C)(C)C [Lacidipine] | 
 |  |  | 0.153 | 756.135 | 0.084 | Nc1nnc(-c2cccc(Cl)c2Cl)c(N)n1 [Lamotrigine] | 
1.884 | 961.173 | 0.157 |  |  |  | Cc1c(OCC(F)(F)F)ccnc1C[S+]([O-])c1nc2ccccc2[nH]1 (stereo not drawn) [Lansoprazole] | 
 |  |  | 0.376 | 727.533 | -0.027 | Cc1oncc1C(=O)Nc1ccc(C(F)(F)F)cc1 [Leflunomide] | 
0.334 | 962.353 | 1.242 |  |  |  | CC(C)(C)NC[C@H](O)c1ccc(O)c(CO)c1 [Levalbuterol hydrochloride] | 
0.335 | 1002.84 | 1.834 |  |  |  | c1ccc([C@H]2CN3CCSC3=N2)cc1 [Levamisole hydrochloride] | 
